We go through 31 molecules from patent publication US10112935B2, “Indazolyl thiadiazolamines and related compounds for inhibition of Rho-associated protein kinase and the treatment of disease” (Lycera Corporation, priority 2015, dated 2018).

For orientation: IC50 means the concentration needed to halve the response being measured. High values mean lower potency, low ones higher potency.

Each structure is given as a SMILES string.

For assay [1], the target named is GST-tagged human ROCK1 catalytic domain 1-477 (Homo sapiens (Human), UniProt Q13464). Briefly: Inhibition of Rho-associated protein kinase isoform 1 (LANCE Ultra ULight-CREBtide FRET kinase assay). It counts as biochemical. Particulars: 30 μM was the highest concentration analyzed. The protocol: (§1) Exemplary compounds were tested for ability to inhibit Rho-associated protein kinase isoform 1 (ROCK1) and Rho-associated protein kinase isoform 2 (ROCK2). Assay procedures and results are described below.
(§2) Protein constructs were purified from a baculovirus expression system. The peptide substrate was fluorescent LANCE® Ultra ULight-CREBtide: […] (PerkinElmer, # TRF0107-D). […] After a 90 minute incubation at room temperature on a shaker table, the kinase reaction was stopped by addition of 10 mM EDTA, and phosphorylation of the substrate was detected by adding 1 nM LANCE® Ultra Europium-anti-phospho-CREB (ser133) antibody (PerkinElmer, # TRF0200-D) and incubating for 60 minutes on a shaker at room temperature. The flurorescence resonance energy transfer (FRET) signals were read and analyzed on an Envision™ 2103 Multilabel Reader (Perkin Elmer).

In assay [2] the target is GST-tagged human ROCK2 catalytic domain 1-553 (Homo sapiens (Human), UniProt O75116). Briefly: Inhibition of Rho-associated protein kinase isoform 2 (LANCE Ultra ULight-CREBtide FRET kinase assay). It counts as biochemical. Particulars: for IC50: 30 μM was the highest concentration analyzed; for Selectivity for ROCK2 over ROCK1 (IC50 ROCK1 / IC50 ROCK2): selectivity ROCK2 vs ROCK1. Here is the method: as §1, §2
GST-tagged human ROCK2 catalytic domain 1-553, sequence (O75116 1-553): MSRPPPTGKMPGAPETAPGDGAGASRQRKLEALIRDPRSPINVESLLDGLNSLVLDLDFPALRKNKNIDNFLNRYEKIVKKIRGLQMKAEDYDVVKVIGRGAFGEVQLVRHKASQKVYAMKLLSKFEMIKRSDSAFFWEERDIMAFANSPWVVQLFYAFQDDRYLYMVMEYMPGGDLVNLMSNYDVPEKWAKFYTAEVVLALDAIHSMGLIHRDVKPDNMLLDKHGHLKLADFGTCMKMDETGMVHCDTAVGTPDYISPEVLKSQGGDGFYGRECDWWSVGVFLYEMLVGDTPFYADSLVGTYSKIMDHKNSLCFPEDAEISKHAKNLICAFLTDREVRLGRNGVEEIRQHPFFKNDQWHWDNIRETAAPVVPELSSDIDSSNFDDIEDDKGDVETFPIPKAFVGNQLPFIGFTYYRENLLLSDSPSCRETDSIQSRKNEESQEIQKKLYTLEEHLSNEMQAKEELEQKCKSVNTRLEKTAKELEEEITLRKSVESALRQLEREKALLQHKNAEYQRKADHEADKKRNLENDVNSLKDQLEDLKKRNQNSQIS

GST-tagged human ROCK1 catalytic domain 1-477, sequence (Q13464 1-477): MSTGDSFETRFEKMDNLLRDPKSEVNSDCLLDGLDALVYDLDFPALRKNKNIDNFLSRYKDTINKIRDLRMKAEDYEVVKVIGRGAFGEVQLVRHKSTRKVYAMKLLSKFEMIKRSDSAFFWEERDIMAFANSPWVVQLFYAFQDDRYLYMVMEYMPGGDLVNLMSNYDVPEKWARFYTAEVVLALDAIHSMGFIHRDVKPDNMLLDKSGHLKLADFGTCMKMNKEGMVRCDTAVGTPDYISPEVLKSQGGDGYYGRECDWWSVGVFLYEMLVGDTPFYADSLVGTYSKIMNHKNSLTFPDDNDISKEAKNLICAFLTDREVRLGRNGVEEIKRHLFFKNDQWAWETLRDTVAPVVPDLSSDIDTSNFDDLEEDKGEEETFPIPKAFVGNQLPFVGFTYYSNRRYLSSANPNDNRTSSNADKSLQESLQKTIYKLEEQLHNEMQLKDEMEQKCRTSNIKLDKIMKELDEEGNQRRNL

For the molecule `N[C@@H](Cc1ccccc1)C(=O)Nc1cccc(-c2nnc(Nc3ccc4[nH]ncc4c3Cl)s2)c1` [Example 35AV], the IC50 in assay [1] was 1 to 15 µM; in assay [2], less than 1 µM. Further, the “Selectivity for ROCK2 over ROCK1 (IC50 ROCK1 / IC50 ROCK2)” value (“Selectivity … (IC50 ROCK1 / IC50 ROCK2)” for short) in assay [2] is more than 5.
Consider `CC(C)(CO)NC(=O)c1cccc(-c2nnc(Nc3ccc4[nH]ncc4c3Cl)s2)c1` [Example 35AR], for which the half-maximal inhibitory concentration (IC50) in assay [1] was in the range of 1 to 15 µM. In assay [2], the IC50 is less than 1 µM and the “Selectivity … (IC50 ROCK1 / IC50 ROCK2)” value is more than 5.
With `Cn1cc(C(=O)Nc2cccc(-c3nnc(Nc4ccc5[nH]nc(Cl)c5c4)s3)c2)cn1` [Example 75J], the IC50 in assay [1] and in assay [2] was more than 30 µM each time.
For `Nc1cncc(-c2nnc(Nc3ccc4[nH]ncc4c3)s2)c1.O=C(O)C(F)(F)F` [Example 35CS], the IC50 was less than 1 µM in assay [1] and 1 to 15 µM in assay [2]. Moreover, in assay [2], the “Selectivity … (IC50 ROCK1 / IC50 ROCK2)” value is less than 5.
Consider `CCCOC(=O)Nc1cc(-c2nnc(Nc3ccc4[nH]ncc4c3Cl)s2)ccn1.O=C(O)C(F)(F)F` [Example 35F], for which, in assay [1], the IC50 was more than 30 µM. For the same molecule, in assay [2], the IC50 was less than 1 µM and the “Selectivity … (IC50 ROCK1 / IC50 ROCK2)” value is reported as more than 100.
`O=C(NCC(O)CO)c1cccc(-c2nnc(Nc3ccc4[nH]ncc4c3)s2)c1` (stereo not shown) [Example A-4] had an IC50 in assay [1] of 1 to 15 µM. In assay [2], the IC50 is 1 to 15 µM and the “Selectivity … (IC50 ROCK1 / IC50 ROCK2)” value is less than 5.
Turning to `O=C(Nc1cccc(-c2nnc(Nc3ccc4[nH]ncc4c3Cl)s2)c1)C1CNC1` [Example 35AD], the IC50 is 1 to 15 µM in assay [1] and less than 1 µM in assay [2]. For the same molecule, the “Selectivity … (IC50 ROCK1 / IC50 ROCK2)” value in assay [2] is more than 5.
On to `O=C(Cc1cnccn1)Nc1cccc(-c2nnc(Nc3ccc4[nH]ncc4c3Cl)s2)c1` [Example 35BP], for which the IC50 in assay [1] is less than 1 µM. Further, in assay [2], the IC50 is less than 1 µM and the “Selectivity … (IC50 ROCK1 / IC50 ROCK2)” value is on record as more than 5.
Consider `O=C(Cc1ccc(F)cc1)Nc1cccc(-c2nnc(Nc3ccc4[nH]ncc4c3Cl)s2)c1` [Example 35BO], for which the concentration for half-maximal inhibition (IC50) in assay [1] and in assay [2] was less than 1 µM each time. Also, the “Selectivity … (IC50 ROCK1 / IC50 ROCK2)” value in assay [2] is more than 50.
The molecule `CC(=O)Nc1cc(-c2nnc(Nc3ccc4[nH]ncc4c3Cl)s2)ccc1-c1ncco1` [Example 48P] registered an IC50 in assay [1] of more than 30 µM. In assay [2], the IC50 was less than 1 µM and the “Selectivity … (IC50 ROCK1 / IC50 ROCK2)” value was more than 100.
As to `c1csc(-c2cncc(-c3nnc(Nc4ccc5[nH]ncc5c4)s3)c2)c1` [Example 39D], the IC50 in assay [1] fell in the range of 1 to 15 µM. Besides, in assay [2], the IC50 was less than 1 µM and the “Selectivity … (IC50 ROCK1 / IC50 ROCK2)” value is listed as more than 5.
Taken in the same sequence, the figures for `CCS(=O)(=O)Nc1cncc(-c2nnc(Nc3ccc4[nH]ncc4c3)s2)c1.O=C(O)C(F)(F)F` [Example 35CN] were 1 to 15 µM, 1 to 15 µM and more than 5.
In turn, `Clc1c(Nc2nnc(-c3cccc(-c4nnn[nH]4)c3)s2)ccc2[nH]ncc12` [Example 41D] returned an IC50 in assay [1] of less than 1 µM. In assay [2], the IC50 was less than 1 µM and the “Selectivity … (IC50 ROCK1 / IC50 ROCK2)” value was more than 50.
In the case of `Nc1cncc(-c2nnc(Nc3ccc4[nH]ncc4c3)s2)c1` [Example A-24], the IC50 in assay [1] is less than 1 µM. Moreover, in assay [2], the IC50 was less than 1 µM and the “Selectivity … (IC50 ROCK1 / IC50 ROCK2)” value is less than 5.
The molecule `O=C(Nc1cccc(-c2nnc(Nc3ccc4[nH]ncc4c3)s2)c1)c1cn[nH]c1` [Example A-46] returned an IC50 in assay [1] of more than 30 µM. In assay [2], the IC50 was less than 1 µM and the “Selectivity … (IC50 ROCK1 / IC50 ROCK2)” value is on record as more than 100.
For the molecule `Clc1c(Nc2nnc(-c3cccc4c3ncn4CCN3CCOCC3)s2)ccc2[nH]ncc12` [Example 75V], the IC50 in assay [1] and in assay [2] was more than 30 µM each time.
`CC(=O)Nc1cccc(-c2nnc(Nc3ccc4[nH]ncc4c3Cl)s2)c1` [Example 35Y]: the IC50 in assay [1] was less than 1 µM. For the same molecule, in assay [2], the IC50 was less than 1 µM and the “Selectivity … (IC50 ROCK1 / IC50 ROCK2)” value is listed as more than 5.
With `Cn1cc(C(=O)Nc2cc(F)c(F)c(-c3nnc(Nc4ccc5[nH]ncc5c4)s3)c2)cn1` [Example 35BZ], the IC50 in assay [1] is more than 30 µM. In addition, in assay [2], the IC50 was less than 1 µM and the “Selectivity … (IC50 ROCK1 / IC50 ROCK2)” value was more than 100.
`c1cc2[nH]ncc2cc1Nc1nnc(N2CCNCC2)s1` [Example A-48]: the IC50 in assay [1] and in assay [2] was 1 to 15 µM in each case. Also, the “Selectivity … (IC50 ROCK1 / IC50 ROCK2)” value in assay [2] is less than 5.
`O=C(O)C(F)(F)F.O=C(O)c1cc(-c2ncco2)cc(-c2nnc(Nc3ccc4[nH]ncc4c3Cl)s2)c1` [Example 46N]: the IC50 in assay [1] is less than 1 µM. In addition, in assay [2], the IC50 is less than 1 µM and the “Selectivity … (IC50 ROCK1 / IC50 ROCK2)” value is given as more than 5.
In assay [1], `Clc1c(Nc2nnc(-c3cccn4cc(C5CCCO5)nc34)s2)ccc2[nH]ncc12` (stereo not shown) [Example 50C] registered an IC50 of less than 1 µM. Moreover, in assay [2], the 50% inhibitory concentration (IC50) is less than 1 µM and the “Selectivity … (IC50 ROCK1 / IC50 ROCK2)” value was more than 5.
Molecule `O=C(O)COc1cccc(-c2nnc(Nc3ccc4[nH]ncc4c3)s2)c1` [Example A-22] displayed an IC50 in assay [1] of 1 to 15 µM. Moreover, in assay [2], the IC50 lay within 1 to 15 µM and the “Selectivity … (IC50 ROCK1 / IC50 ROCK2)” value is more than 5.
In the case of `Clc1c(Nc2nnc(-c3cccc(-c4nccs4)c3)s2)ccc2[nH]ncc12` [Example 46I], the IC50 in assay [1] was more than 30 µM. In addition, in assay [2], the IC50 is less than 1 µM and the “Selectivity … (IC50 ROCK1 / IC50 ROCK2)” value is recorded as more than 100.
With `Cn1cc(C(=O)Nc2cccc(-c3nnc(Nc4ccc5[nH]ncc5c4Cl)s3)c2)cn1` [Example A-11], the IC50 in assay [1] is more than 30 µM; in assay [2] it was less than 1 µM. In assay [2], the “Selectivity … (IC50 ROCK1 / IC50 ROCK2)” value is reported as more than 100.
For the molecule `Clc1c(Nc2nnc(-c3cccn4cc(C5CCNCC5)nc34)s2)ccc2[nH]ncc12` [Example 50H], in assay [1], the IC50 fell in the range of 1 to 15 µM. Moreover, in assay [2], the IC50 was less than 1 µM and the “Selectivity … (IC50 ROCK1 / IC50 ROCK2)” value is reported as more than 5.
For `COc1cccc(-c2nnc(N(CCO)c3ccc4[nH]ncc4c3)s2)c1` [Example A-21], in assay [1], the IC50 fell in the range of 15 to 30 µM. For the same molecule, in assay [2], the IC50 was 15 to 30 µM and the “Selectivity … (IC50 ROCK1 / IC50 ROCK2)” value is less than 5.
Molecule `CC(=O)Nc1cc(C(=O)NCC(O)CO)cc(-c2nnc(Nc3ccc4[nH]ncc4c3Cl)s2)c1` (stereo not shown) [Example 48W] came in with an IC50 in assay [1] of less than 1 µM. For the same molecule, in assay [2], the IC50 is less than 1 µM and the “Selectivity … (IC50 ROCK1 / IC50 ROCK2)” value is more than 5.
In assay [1], `Cn1cc(C(=O)Nc2cc(CC(=O)O)cc(-c3nnc(Nc4ccc5[nH]ncc5c4Cl)s3)c2)cn1` [Example 48R] yielded a 50% inhibitory concentration (IC50) of less than 1 µM. Also, in assay [2], the IC50 is less than 1 µM and the “Selectivity … (IC50 ROCK1 / IC50 ROCK2)” value is more than 5.
In assay [1], `Nc1ccnc(-c2nnc(Nc3ccc4[nH]ncc4c3)s2)c1.O=C(O)C(F)(F)F` [Example 35CT] returned an IC50 of more than 30 µM. Moreover, in assay [2], the IC50 was less than 1 µM and the “Selectivity … (IC50 ROCK1 / IC50 ROCK2)” value is more than 5.
In turn, `Cn1ccnc1-c1cccc(-c2nnc(Nc3ccc4[nH]ncc4c3Cl)s2)c1.O=C(O)C(F)(F)F` [Example 46E] showed an IC50 in assay [1] of more than 30 µM. Besides, in assay [2], the 50% inhibitory concentration (IC50) was less than 1 µM and the “Selectivity … (IC50 ROCK1 / IC50 ROCK2)” value was more than 100.
On to `Cc1cc(C(=O)Nc2cccc(-c3nnc(Nc4ccc5[nH]ncc5c4)s3)c2)no1` [Example A-40], for which, in assay [1], the IC50 is more than 30 µM. Further, in assay [2], the IC50 is less than 1 µM and the “Selectivity … (IC50 ROCK1 / IC50 ROCK2)” value is more than 100.
